Test results taken from patent publication US7528115B2, “Carbonate and carbamate prodrugs of thiazolo[4,5-d]pyrimidines” (Anadys Pharmaceuticals, Inc., priority 2006, dated 2009).

Assay: Animal PK: oral availability of 53b in cynomolgus monkeys after dosing of Formula I prodrugs
Type: in vivo
Settings: 53b dosed IV
Description: The ability of prodrugs of the present invention to deliver 53a or 53b to the systemic circulation after oral dosing was assessed by methods well known in the art. For Table 1, each test compound was formulated into a solution for oral dosing by dissolving the compound in either an aqueous buffer such as PBS at pH 3 or pH 7 (in a solution of 100% propylene glycol), or in a solution containing a solubilizer such as Cremophor EL, Tween80, or PEG400. The solution of the compound was dosed by oral gavage to cynomolgus monkeys, generally using a group of four animals for each experiment. Plasma samples were collected from the animals at several time points (usually, from 6 to 12 time points were used) within 24 hours. The plasma samples were frozen quickly after collection, and thawed immediately before sample preparation for bioanalysis. […]
Calibration standards were prepared by serial dilution of an initial concentrated standard of the analyte with either animal plasma or cell culture media. […] The acceptance of the calibration curves was based on the accuracy of the back-calculated standard concentrations. A standard was accepted if the accuracy was within 15% for all the standards, except for the lower limit of quantitation for which 20% was applied. The fitted calibration curve was used to calculate the quantity of analyte in samples. […]

FPO (10 mg/kg (reference for the ratio)): 1 | AUC(0-inf) (cynomolgus monkey, plasma, 10 mg/kg, cynomolgus monkeys, mean of all individual AUC(0-inf) values): 15200 ng·h/mL
Compound: Nc1nc2c(sc(=O)n2C2O[C@H](CO)[C@H](O)[C@H]2O)c(=O)[nH]1 (some centres unmarked) [Compound 53b]
